Results: paper PMC8854719, “Phase 1A/1B dose-escalation and -expansion study to evaluate the safety, pharmacokinetics, food effects and antitumor activity of pamiparib in advanced solid tumours” (British Journal of Cancer, 2021)
Read-outs that look alike come from different tables or passages of the source.

Experiment: Plasma pharmacokinetics of pamiparib (LC-MS/MS, non-compartmental)
Design: species or system human
Settings: in vivo; for AUC(0-inf): AUC0-inf; for Vd/F: Vz/F
Experimental: Patients in the dose-escalation phase received a single oral dose of pamiparib on day 1 of cycle 1 to collect samples for single-dose PK assessment over 48 h, followed by continuous daily doses (BID and QD) starting on day 3 of cycle 1 as a 21-day period of repeated drug administration (days 3–23), and then continued every 21-day cycle thereafter until disease progression, toxicity, or patient withdrawal. Eight BID dose levels (2.5, 5, 10, 20, 40, 60, 80, 120 mg) were administered (Fig. 1). After completion of BID dose-escalation, alternative dosing regimens of 120 and 160 mg QD were selected for exploration based on the total daily dose equivalent to the RP2D (60 mg BID) and MTD (80 mg BID), respectively. The QD dosing regimen was added as an amendment to the protocol with the purpose of exploring the feasibility of a more convenient regimen. During the dose-expansion phase, patients received pamiparib 60 mg BID (RP2D from BID dose-escalation phase) continuously from day 1 of cycle 1.
Pamiparib in plasma was measured using a validated liquid chromatography-tandem–mass spectrometry assay with a lower limit of quantification of 1.0 ng/mL. The collection schedule for blood samples used to assess the PK profile is presented in the Supplemental Appendix. Summary PK parameters, including area under the concentration-time curve from time 0 to 9 h (AUC0-9) or infinity (AUC0-inf), maximal plasma concentration (Cmax) and time to maximal plasma concentration (Tmax), were estimated. The pharmacodynamic (PD) activity of pamiparib was explored through the evaluation of poly(ADP-ribose [PAR]) formation in peripheral blood mononuclear cells (PBMCs) after pamiparib administration. The schedule for blood sample collection (PK and PBMCs) and additional assessment information for PAR levels in PBMCs and pharmacodynamic activity is presented in the Supplemental Appendix. Antitumor activity was assessed by radiographic imaging (computed tomography or magnetic resonance imaging) during screening, within 28 days of first pamiparib dose, every 6 weeks in the first 12 months and every 9 weeks thereafter.
Descriptive statistics were used to summarise all study data (see Supplemental Appendix). Progression-free survival (PFS) and event-free rates were estimated using the Kaplan–Meier method along with the corresponding 95% CI. Pharmacokinetic parameters were derived using standard non-compartmental methods with Phoenix WinNonlin Version 6.4 or higher (Pharsight Corp., Mountain View, California).
The PK profile of pamiparib was assessed based on blood samples collected at predose and 0.5, 1, 2, 4, 6, 9, 24, and 48 hours postdose on Days 1-3 and then at predose and 0.5, 1, 2, 4, 6, and 9 hours postdose on Day 17 of Cycle 1 in Phase 1A. Sparse PK samples were collected in phase 1B Part A. The food effect on the PK of pamiparib was assessed based on blood samples collected at predose and 0.5, 1, 2, 4, 7, 24, and 48 hours postdose on Day 1 and Day 6 of Cycle 1 in phase 1B Part B.

[1] = human, 2.5 mg, Single Dose (Cycle 1 Day 1)
[2] = human, 5 mg, Single Dose (Cycle 1 Day 1)
[3] = human, 10 mg, Single Dose (Cycle 1 Day 1)
[4] = human, 20 mg, Single Dose (Cycle 1 Day 1)
[5] = human, 40 mg, Single Dose (Cycle 1 Day 1)
[6] = human, 60 mg, Single Dose (Cycle 1 Day 1)
[7] = human, 80 mg, Single Dose (Cycle 1 Day 1)
[8] = human, 120 mg, Single Dose (Cycle 1 Day 1)
[9] = human, 160 mg, Single Dose (Cycle 1 Day 1)

Compound: C[C@]12CCCN1CC1=NNC(=O)c3cc(F)cc4[nH]c2c1c34 [pamiparib]
- Dose proportionality, AUC0-inf (h*ng/mL): Intercept (95% CI) (human): 5.97 (5.36-6.57)
- Dose proportionality, AUC0-inf (h*ng/mL): Slope (95% CI) (human): 1.04 (0.88-1.20)
- Dose proportionality, Cmax (ng/mL): Intercept (95% CI) (human): 3.66 (3.34-3.99)
- Dose proportionality, Cmax (ng/mL): Slope (95% CI) (human): 0.96 (0.87-1.04)
- Accumulation Ratio, AUC0-9 (human, 2.5 mg): 2.42
- Accumulation Ratio, Cmax (human, 2.5 mg): 2.44
- CL/F, Single Dose (Cycle 1 Day 1) (human, 2.5 mg): 4265.3 (34.8) mL/hr
- t1/2, Single Dose (Cycle 1 Day 1) (human, 2.5 mg): 12.03 (7.08, 33.87) hr
- AUC(0-t) (human, 2.5 mg, AUC0-9, Single Dose (Cycle 1 Day 1)): 385 ng·h/mL
- AUC(0-t) (human, 2.5 mg, AUC0-9, Steady State (Cycle 1 Day 17)): 931 ng·h/mL
- AUC(0-inf) [1]: 586 ng·h/mL
- Cmax [1]: 74.5 ng/mL
- Cmax (human, 2.5 mg, Steady State (Cycle 1 Day 17)): 182 ng/mL
- Vd/F [1]: 52.4 L
- Accumulation Ratio, AUC0-9 (human, 5 mg): 1.93
- Accumulation Ratio, Cmax (human, 5 mg): 2.09
- CL/F, Single Dose (Cycle 1 Day 1) (human, 5 mg): 2056.9 (49.5) mL/hr
- AUC(0-t) (human, 5 mg, AUC0-9, Single Dose (Cycle 1 Day 1)): 1100 ng·h/mL
- AUC(0-t) (human, 5 mg, AUC0-9, Steady State (Cycle 1 Day 17)): 2120 ng·h/mL
- AUC(0-inf) [2]: 2430 ng·h/mL
- Cmax [2]: 193 ng/mL
- Cmax (human, 5 mg, Steady State (Cycle 1 Day 17)): 404 ng/mL
- Tmax (human, 5 mg, Tmax, Steady State (Cycle 1 Day 17)): 0.53 h
- Vd/F [2]: 32.7 L
- half-life (human, 5 mg, t1/2, Single Dose (Cycle 1 Day 1)): 11 h
- Accumulation Ratio, AUC0-9 (human, 10 mg): 1.68
- Accumulation Ratio, Cmax (human, 10 mg): 1.59
- CL/F, Single Dose (Cycle 1 Day 1) (human, 10 mg): 1359.2 (35.9) mL/hr
- AUC(0-t) (human, 10 mg, AUC0-9, Single Dose (Cycle 1 Day 1)): 2580 ng·h/mL
- AUC(0-t) (human, 10 mg, AUC0-9, Steady State (Cycle 1 Day 17)): 4330 ng·h/mL
- AUC(0-inf) [3]: 7360 ng·h/mL
- Cmax [3]: 412 ng/mL
- Cmax (human, 10 mg, Steady State (Cycle 1 Day 17)): 657 ng/mL
- Tmax (human, 10 mg, Tmax, Steady State (Cycle 1 Day 17)): 1.05 h
- Vd/F [3]: 27.6 L
- half-life (human, 10 mg, t1/2, Single Dose (Cycle 1 Day 1)): 14.1 h
- AUC0-9, Single Dose (Cycle 1 Day 1) (human, 20 mg): 4134.9 (29.9) ng/ml*hr
- Accumulation Ratio, AUC0-9 (human, 20 mg): 1.82
- Accumulation Ratio, Cmax (human, 20 mg): 1.62
- CL/F, Single Dose (Cycle 1 Day 1) (human, 20 mg): 2550.4 (58.7) mL/hr
- Cmax, Steady State (Cycle 1 Day 17) (human, 20 mg): 1267.6 (19.9) ng/ml
- AUC(0-t) (human, 20 mg, AUC0-9, Steady State (Cycle 1 Day 17)): 7510 ng·h/mL
- AUC(0-inf) [4]: 7840 ng·h/mL
- Cmax [4]: 783 ng/mL
- Tmax (human, 20 mg, Tmax, Single Dose (Cycle 1 Day 1)): 0.53 h
- Vd/F [4]: 31.4 L
- half-life (human, 20 mg, t1/2, Single Dose (Cycle 1 Day 1)): 8.53 h
- Accumulation Ratio, AUC0-9 (human, 40 mg): 1.86
- Accumulation Ratio, Cmax (human, 40 mg): 1.60
- CL/F, Single Dose (Cycle 1 Day 1) (human, 40 mg): 1826.6 (85.8) mL/hr
- t1/2, Single Dose (Cycle 1 Day 1) (human, 40 mg): 11.76 (6.24, 24.37) hr
- AUC(0-t) (human, 40 mg, AUC0-9, Single Dose (Cycle 1 Day 1)): 8950 ng·h/mL
- AUC(0-t) (human, 40 mg, AUC0-9, Steady State (Cycle 1 Day 17)): 18300 ng·h/mL
- AUC(0-inf) [5]: 21900 ng·h/mL
- Cmax [5]: 1750 ng/mL
- Cmax (human, 40 mg, Steady State (Cycle 1 Day 17)): 2940 ng/mL
- Tmax (human, 40 mg, Tmax, Steady State (Cycle 1 Day 17)): 1.5 h
- Vd/F [5]: 31 L
- AUC0-9, Single Dose (Cycle 1 Day 1) (human, 60 mg): 10403.7 (29.2) ng/ml*hr
- CL/F, Single Dose (Cycle 1 Day 1) (human, 60 mg): 1874.7 (55.4) mL/hr
- Geometric mean half-life (human, 60 mg): 13.5 h
- t1/2, Single Dose (Cycle 1 Day 1) (human, 60 mg): 13.50 (7.14, 24.61) hr
- AUC(0-t) (human, 60 mg, AUC0-9, Steady State (Cycle 1 Day 17)): 25200 ng·h/mL
- AUC(0-inf) [6]: 32000 ng·h/mL
- Cmax [6]: 1880 ng/mL
- Cmax (human, 60 mg, Steady State (Cycle 1 Day 17)): 3830 ng/mL
- Vd/F [6]: 36.5 L
- Accumulation Ratio, AUC0-9 (human, 80 mg): 2.07
- Accumulation Ratio, Cmax (human, 80 mg): 1.96
- CL/F, Single Dose (Cycle 1 Day 1) (human, 80 mg): 2786.6 (56.0) mL/hr
- Cmax, Single Dose (Cycle 1 Day 1) (human, 80 mg): 2317.8 (43.0) ng/ml
- AUC(0-t) (human, 80 mg, AUC0-9, Single Dose (Cycle 1 Day 1)): 13200 ng·h/mL
- AUC(0-t) (human, 80 mg, AUC0-9, Steady State (Cycle 1 Day 17)): 25300 ng·h/mL
- AUC(0-inf) [7]: 28700 ng·h/mL
- Cmax (human, 80 mg, Steady State (Cycle 1 Day 17)): 4350 ng/mL
- Tmax (human, 80 mg, Tmax, Single Dose (Cycle 1 Day 1)): 1.98 h
- Tmax (human, 80 mg, Tmax, Steady State (Cycle 1 Day 17)): 1.08 h
- Vd/F [7]: 38.5 L
- half-life (human, 80 mg, t1/2, Single Dose (Cycle 1 Day 1)): 9.58 h
- AUC0-9, Steady State (Cycle 1 Day 17) (human, 120 mg): 36558.4 (32.4) ng/ml*hr
- AUC0-inf, Single Dose (Cycle 1 Day 1) (human, 120 mg): 68952.9 (43.3) ng/ml*hr
- Cmax, Single Dose (Cycle 1 Day 1) (human, 120 mg): 3752.8 (41.1) ng/ml
- Cmax, Steady State (Cycle 1 Day 17) (human, 120 mg): 6059.1 (27.7) ng/ml
- Vz/F, Single Dose (Cycle 1 Day 1) (human, 120 mg): 31373.9 (13.9) mL
- t1/2, Single Dose (Cycle 1 Day 1) (human, 120 mg): 14.29 (9.83, 30.30) hr
- AUC(0-t) (human, 120 mg, AUC0-9, Single Dose (Cycle 1 Day 1)): 21100 ng·h/mL
- AUC(0-t) (human, 120 mg, AUC0-9, Steady State (Cycle 1 Day 17)): 26900 ng·h/mL
- AUC(0-inf) [8]: 52000 ng·h/mL
- Cmax [8]: 3590 ng/mL
- Cmax (human, 120 mg, Steady State (Cycle 1 Day 17)): 4530 ng/mL
- Tmax (human, 120 mg, Tmax, Single Dose (Cycle 1 Day 1)): 1.95 h
- Vd/F [8]: 36.3 L
- half-life (human, 120 mg, t1/2, Single Dose (Cycle 1 Day 1)): 10.9 h
- Accumulation Ratio, AUC0-9 (human, 160 mg): 1.47
- Accumulation Ratio, Cmax (human, 160 mg): 1.27
- CL/F, Single Dose (Cycle 1 Day 1) (human, 160 mg): 1569.1 (44.8) mL/hr
- AUC(0-t) (human, 160 mg, AUC0-9, Single Dose (Cycle 1 Day 1)): 31800 ng·h/mL
- AUC(0-t) (human, 160 mg, AUC0-9, Steady State (Cycle 1 Day 17)): 45300 ng·h/mL
- AUC(0-inf) [9]: 102000 ng·h/mL
- Cmax [9]: 5340 ng/mL
- Cmax (human, 160 mg, Steady State (Cycle 1 Day 17)): 6870 ng/mL
- Vd/F [9]: 34.5 L
- half-life (human, 160 mg, t1/2, Single Dose (Cycle 1 Day 1)): 15.2 h
- half-life (human, Mean terminal half-life): ~13 h
- Tmax (human, Median Tmax): 1 to 2 h
- Tmax (human, BID 2.5 mg, N 4, read-out: Tmax, Steady State (Cycle 1 Day 17)): 0.54 h
- AUC0-9 (human, QD 120 mg, N 8, read-out: AUC0-9, Single Dose (Cycle 1 Day 1)): 21700 ng·h/mL
- Exposure (Cmax and AUC0-inf) versus dose: dose-proportional increase
